Test results reported in patent US20110045086A1, “Steroid Nebuliser Formulation” (BREATH LTD, priority 2008, published 2011).

What was measured:
Assay type in all cases: physicochemical
[1] = dry Sympatec PSD analysis (particle size distribution); settings: for Particle Size, cumulative distribution Q3 X10 / Particle Size, cumulative distribution Q3 X50 / Particle Size, cumulative distribution Q3 X90: dry Sympatec PSD, after isolation / pre-storage sample
Source text: Particle size or particle diameter as used herein can be suitably determined by laser diffraction based methods, for example as described in ISO Standard 13320-1. Laser diffraction particle sizing apparatus such as the Malvern Mastersizer 2000™ can be used.

[2] = storage at 20% relative humidity for 48 hours (DVS, DSC, PSD, SEM); settings: for Particle Size, cumulative distribution Q3 X10 / Particle Size, cumulative distribution Q3 X50 / Particle Size, cumulative distribution Q3 X90: dry Sympatec PSD, post-storage sample; for DSC trace of the stored sample / variation of particle size after storage (PSD): post-storage; for weight change during storage (DVS mass plot): storage at 20% RH for 48 hours
Method: In order to evaluate the effect of humidity on prolonged storage processed BDP hydrate was subjected to 20% relative humidity (RH) for 48 hours.
The sample recovered after storage was analysed by DSC, TGA, PSD and SEM.
In order to evaluate the effect of humidity on prolonged storage anhydrous BDP was subjected to 20% relative humidity (RH) for 48 hours. The pre-storage sample was characterized by TGA, DSC, PSD and SEM analysis.
The sample recovered after storage was analyzed by DSC, PSD and SEM.

[3] = microscope imaging / SEM of particles; settings: for largest particles or clusters observed (microscope imaging / SEM): after supercritical CO2 isolation; for particle size in suspension prior to isolation (microscope imaging): partially agglomerated particles, before supercritical CO2 isolation
[4] = after supercritical CO2 isolation

Compound | Particle Size, cumulative distribution Q3 X10 [1] | Particle Size, cumulative distribution Q3 X50 [1] | Particle Size, cumulative distribution Q3 X90 [1] | stability on prolonged storage ([2]; 20% RH for 48 hours, compared with anhydrous BDP) | Particle Size, cumulative distribution Q3 X10 ([2]; 20% RH for 48 hours) | Particle Size, cumulative distribution Q3 X50 ([2]; 20% RH for 48 hours) | Particle Size, cumulative distribution Q3 X90 ([2]; 20% RH for 48 hours) | DSC trace of the stored sample ([2]; 20% RH for 48 hours) | variation of particle size after storage (PSD) ([2]; 20% RH for 48 hours) | time to steady state in DVS mass plot ([2]; storage at 20% RH) | weight change during storage (DVS mass plot) [2] | largest particles by dry Sympatec PSD analysis ([1]; after supercritical CO2 isolation, bimodal distribution) | largest particles or clusters observed (microscope imaging / SEM) [3] | particle size in suspension prior to isolation (microscope imaging) [3] | size of larger clusters or agglomerates by dry Sympatec PSD analysis [1, 4] | size of most particles by dry Sympatec PSD analysis [1, 4]
CCC(=O)OCC(=O)[C@@]1(OC(=O)CC)[C@@H](C)C[C@H]2[C@@H]3CCC4=CC(=O)C=C[C@]4(C)[C@@]3(Cl)[C@@H](O)C[C@@]21C.O [BDP hydrate] | 0.51 μ | 1.35 μ | 3.17 μ | higher stability on prolonged storage than anhydrous BDP | 0.51 μ | 1.37 μ | 2.95 μ | no variation in the thermal behavior | no significant variation of particle size | about 1500 minutes | considerable weight loss due to partial dehydration | – | – | – | – | –
CCC(=O)OCC(=O)[C@@]1(OC(=O)CC)[C@@H](C)C[C@H]2[C@@H]3CCC4=CC(=O)C=C[C@]4(C)[C@@]3(Cl)[C@@H](O)C[C@@]21C [Comparative Example 1] | 1.26 μ | 12.58 μ | 61.27 μ | – | – | – | – | – | – | – | – | up to 150 μm | up to 100 μm | up to 5 μm | – | –
CCC(=O)OCC(=O)[C@@]1(OC(=O)CC)[C@@H](C)C[C@H]2[C@@H]3CCC4=CC(=O)C=C[C@]4(C)[C@@]3(Cl)[C@@H](O)C[C@@]21C [Comparative Example 2] | 0.84 μ | 3.58 μ | 8.76 μ | – | – | – | – | – | – | – | – | – | up to 10 μm | up to 5 μm | > 20 μm | ~4 μm
CCC(=O)OCC(=O)[C@@]1(OC(=O)CC)[C@@H](C)C[C@H]2[C@@H]3CCC4=CC(=O)C=C[C@]4(C)[C@@]3(Cl)[C@@H](O)C[C@@]21C [anhydrous BDP, anhydrous beclomethasone diproprionate] | 0.43 μ | 1.10 μ | 2.24 μ | – | 0.42 μ | 1.07 μ | 2.10 μ | formation of BDP hydrate | no significant variation of particle size | – | considerable weight changes | – | – | – | – | –
